Laboratory results taken from patent US10336761B2, “TGFβ receptor antagonist” (BRISTOL-MYERS SQUIBB COMPANY, priority 2015, dated 2019).

Target: HIS-TGFβR1 T204D (Homo sapiens (Human), UniProt P36897, T204D)
Assay: HTRF probe-displacement assay, HIS-TGFβR1 T204D
Type: binding
Conditions: 1 hour at room temperature

Chain of HIS-TGFβR1 T204D (P36897 34-503 T204D): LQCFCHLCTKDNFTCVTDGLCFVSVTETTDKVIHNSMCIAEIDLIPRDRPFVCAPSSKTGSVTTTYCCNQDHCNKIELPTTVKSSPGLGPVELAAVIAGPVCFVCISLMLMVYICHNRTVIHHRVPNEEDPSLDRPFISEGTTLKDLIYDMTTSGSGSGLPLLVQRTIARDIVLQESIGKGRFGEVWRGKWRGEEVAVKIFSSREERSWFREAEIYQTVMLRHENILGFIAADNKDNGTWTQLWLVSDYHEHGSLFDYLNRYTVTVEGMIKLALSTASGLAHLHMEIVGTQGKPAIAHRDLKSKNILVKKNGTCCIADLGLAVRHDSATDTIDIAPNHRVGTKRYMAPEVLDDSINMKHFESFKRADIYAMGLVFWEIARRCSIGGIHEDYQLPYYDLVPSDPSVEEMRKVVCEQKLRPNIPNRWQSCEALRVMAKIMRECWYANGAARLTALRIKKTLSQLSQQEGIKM

Compound | IC50 [nM]
COc1cccc(-c2nc(Nc3ccncc3NC(=O)CN3CCOCC3)c3cccn3n2)n1 [Example 212, N-(4-{[2-(6-methoxypyridin-2-yl)pyrrolo[2,1-f][1,2,4]triazin-4-yl]amino}pyridin-3-yl)-2-(morpholin-4-yl)acetamide] | 3000
CC(C)(C)OCCNC(=O)c1cnccc1Nc1nc(-c2cccc(C(F)F)n2)nn2cccc12 [Example 173, N-[2-(tert-butoxy)ethyl]-4-({2-[6-(difluoromethyl)pyridin-2-yl]pyrrolo[2,1-f][1,2,4]triazin-4-yl}amino)pyridine-3-carboxamide] | 48
CC(C)(C)CC(=O)Nc1cc(Nc2nc(-c3cccc(C(F)(F)F)n3)nn3cccc23)ccn1 [Example 321, 3,3-dimethyl-N-[4-({2-[6-(trifluoromethyl)pyridin-2-yl]pyrrolo[2,1-f][1,2,4]triazin-4-yl}amino)pyridin-2-yl]butanamide] | 91
Cc1cccc(-c2nc(Nc3ccncc3)c3cc(C(=O)Nc4ccccc4)cn3n2)n1 [Example 217, 2-(6-methylpyridin-2-yl)-N-phenyl-4-[(pyridin-4-yl)amino]pyrrolo[2,1-f][1,2,4]triazine-6-carboxamide] | 7.7
COc1cccc(-c2nc(Nc3ccncc3F)c3cc(CCCCN4CCN(C)CC4)cn3n2)n1 [Example 43, 3-fluoro-N-[2-(6-methoxypyridin-2-yl)-6-[4-(4-methylpiperazin-1-yl)butyl]pyrrolo[2,1-f][1,2,4]triazin-4-yl]pyridin-4-amine] | 2200
COc1cccc(-c2nc(Nc3ccncc3F)c3c(CN4CCC(F)(F)CC4)ccn3n2)n1 [Example 25, N-{5-[(4,4-difluoropiperidin-1-yl)methyl]-2-(6-methoxypyridin-2-yl)pyrrolo[2,1-f][1,2,4]triazin-4-yl}-3-fluoropyridin-4-amine] | 9
COc1cccc(-c2nc(Nc3ccncc3F)c3ccc(F)n3n2)n1 [Example 41, 3-fluoro-N-[7-fluoro-2-(6-methoxypyridin-2-yl)pyrrolo[2,1-f][1,2,4]triazin-4-yl]pyridin-4-amine] | 87
COc1cccc(-c2nc(Nc3ccnc(NCCN4CCOCC4)c3)c3c(C)ccn3n2)n1 [Example 137, 4-N-[2-(6-methoxypyridin-2-yl)-5-methylpyrrolo[2,1-f][1,2,4]triazin-4-yl]-2-N-[2-(morpholin-4-yl)ethyl]pyridine-2,4-diamine] | 120
COc1cccc(-c2nc(Nc3ccncc3F)c3cccn3n2)n1 [Example 58, 3-fluoro-N-[2-(6-methoxypyridin-2-yl)pyrrolo[2,1-f][1,2,4]triazin-4-yl]pyridin-4-amine] | 4
CC(O)CCNCc1ccn2nc(-c3ccccn3)nc(Nc3ccncc3F)c12 (stereo not shown) [Example 274, 4-[({4-[(3-fluoropyridin-4-yl)amino]-2-(pyridin-2-yl)pyrrolo[2,1-f][1,2,4]triazin-5-yl}methyl)amino]butan-2-ol] | 0.52
O=C(CN1CCCCC1)Nc1cc(Nc2nc(-c3cccc(C(F)(F)F)n3)nn3cccc23)ccn1 [Example 329, 2-(piperidin-1-yl)-N-[4-({2-[6-(trifluoromethyl)pyridin-2-yl]pyrrolo[2,1-f][1,2,4]triazin-4-yl}amino)pyridin-2-yl]acetamide] | 1.7
CCc1cc2c(Nc3ccncc3F)nc(-c3cccc(OC)n3)nn2c1 [Example 29, 6-ethyl-N-(3-fluoropyridin-4-yl)-2-(6-methoxypyridin-2-yl)pyrrolo[2,1-f][1,2,4]triazin-4-amine] | 16
CC(=O)Nc1nccc(Nc2nc(-c3cccc(C(F)F)n3)nn3cccc23)c1F [Example 229, N-[4-({2-[6-(difluoromethyl)pyridin-2-yl]pyrrolo[2,1-f][1,2,4]triazin-4-yl}amino)-3-fluoropyridin-2-yl]acetamide] | 5.1
CC(C)CC(=O)Nc1cc(Nc2nc(-c3cccc(C(F)(F)F)n3)nn3cccc23)ccn1 [Example 314, 3-methyl-N-[4-({2-[6-(trifluoromethyl)pyridin-2-yl]pyrrolo[2,1-f][1,2,4]triazin-4-yl}amino)pyridin-2-yl]butanamide] | 5.6
O=C(c1cnccc1Nc1nc(-c2cccc(C(F)F)n2)nn2cccc12)N1CCC(F)(F)CC1 [Example 203, N-{2-[6-(difluoromethyl)pyridin-2-yl]pyrrolo[2,1-f][1,2,4]triazin-4-yl}-3-(4,4-difluoropiperidine-1-carbonyl)pyridin-4-amine] | 750
O=C(CCN1CC(F)(F)C1)Nc1cc(Nc2nc(-c3cccc(C(F)(F)F)n3)nn3cccc23)ccn1 [Example 341, 3-(3,3-difluoroazetidin-1-yl)-N-[4-({2-[6-(trifluoromethyl)pyridin-2-yl]pyrrolo[2,1-f][1,2,4]triazin-4-yl}amino)pyridin-2-yl]propanamide] | 2.7
COc1cccc(-c2nc(Nc3ccnc(Cl)c3)c3cccn3n2)n1 [Example 93, 2-chloro-N-[2-(6-methoxypyridin-2-yl)pyrrolo[2,1-f][1,2,4]triazin-4-yl]pyridin-4-amine] | 6600
COc1cccc(-c2nc(Nc3ccncc3F)c3cc(NC(=O)CNS(C)(=O)=O)cn3n2)n1 [Example 110, N-{4-[(3-fluoropyridin-4-yl)amino]-2-(6-methoxypyridin-2-yl)pyrrolo[2,1-f][1,2,4]triazin-6-yl}-2-methanesulfonamidoacetamide] | 130
CC(C)(O)CNCC(=O)Nc1cc(Nc2nc(-c3cccc(C(F)(F)F)n3)nn3cccc23)ccn1 [Example 330, 2-[(2-hydroxy-2-methylpropyl)amino]-N-[4-({2-[6-(trifluoromethyl)pyridin-2-yl]pyrrolo[2,1-f][1,2,4]triazin-4-yl}amino)pyridin-2-yl]acetamide] | 0.6
O[C@H]1CC[C@H](NCc2ccn3nc(-c4ccccn4)nc(Nc4ccncc4F)c23)CC1 [Example 288, (1R,4R)-4-[({4-[(3-fluoropyridin-4-yl)amino]-2-(pyridin-2-yl)pyrrolo[2,1-f][1,2,4]triazin-5-yl}methyl)amino]cyclohexan-1-ol] | 3.2
Fc1cnccc1Nc1nc(-c2cccc(C(F)F)n2)nn2cccc12 [Example 78, N-{2-[6-(difluoromethyl)pyridin-2-yl]pyrrolo[2,1-f][1,2,4]triazin-4-yl}-3-fluoropyridin-4-amine] | 0.92
NC(=O)c1cnccc1Nc1nc(-c2ccc(F)c(C(F)F)n2)nn2cccc12 [Example 224, 4-({2-[6-(difluoromethyl)-5-fluoropyridin-2-yl]pyrrolo[2,1-f][1,2,4]triazin-4-yl}amino)pyridine-3-carboxamide] | 1.4
COc1cccc(-c2nc(Nc3ccnc(C)c3)c3cccn3n2)n1 [Example 92, N-[2-(6-methoxypyridin-2-yl)pyrrolo[2,1-f][1,2,4]triazin-4-yl]-2-methylpyridin-4-amine] | 1500
OCCN1CCN(Cc2ccn3nc(-c4ccccn4)nc(Nc4ccncc4F)c23)CC1 [Example 231, 2-[4-({4-[(3-fluoropyridin-4-yl)amino]-2-(pyridin-2-yl)pyrrolo[2,1-f][1,2,4]triazin-5-yl}methyl)piperazin-1-yl]ethan-1-ol] | 2.3
CN1CCN(Cc2ccn3nc(-c4cccc(C(F)(F)F)n4)nc(Nc4ccncc4F)c23)CC1 [Example 26, 3-fluoro-N-{5-[(4-methylpiperazin-1-yl)methyl]-2-[6-(trifluoromethyl)pyridin-2-yl]pyrrolo[2,1-f][1,2,4]triazin-4-yl}pyridin-4-amine] | 32
